The test system of one experiment is GPX4. The experiment is described as follows: Western blotting of GPX4 protein abundance. The following applies: for effect on FIN56-induced decrease of GPX4 protein abundance: 5 μM FIN56. Type of experiment: cell-based, human. As for the experimental part:
Seeded 300,000 cells (HT-1080 or BJeLR) per well in six-well plates. For cotreatment, ferroptosis inducers (10 μM erastin for 11 h, 0.5 μM (1S, 3R)-RSL3 for 2 h, or 5 μM FIN56) and 100 μM α-tocopherol were added to cell culture at the same time, and cells were then incubated for 10 h (FIG. 2E). When other death-modulating compounds (100 nM sodium selenite, 1 μM cerivastatin, 100 μg/mL mevalonic acid, 30 μM C75, or 2 μM cerulenin) were used in cotreatments, cells were pre-incubated with the modulators for 24 h before being treated with ferroptosis inducers for 6 h. Cell lysis, SDS-PAGE and protein transfer to PVDF membrane were performed as previously described (Dixon et al. 2012). We used the following antibodies: anti-human α-tubulin (Santa Cruz Biotechnology, sc-32293, 1:10,000 dilution), anti-human GPX4 (Abcam, ab41787, 1:2,000 dilution), anti-human GPX1 (R&D Systems, AF3798, 1:1,000 dilution), and anti-human SQS (Abcam, ab109723 for full-length, ab195046 for truncated, both at 1:1,000 dilution). Secondary antibodies were from LI-COR (1:3,000 dilution). The PVDF membranes labeled with primary and secondary antibodies were scanned using an Odyssey Imaging System (LI-COR). Experiments were performed in biological triplicates, and the mean±s.e. of intensity was plotted.

Experiment [1] has as its system HT-1080 cells. The experiment is described as follows: Cell viability assay (Alamar Blue), lethal compounds with or without modulators. Type of experiment: cell-based. The note with it: for effect on FIN56 lethality: modulator cotreatment or pretreatment; for effect of ferroptosis inhibitors (α-tocopherol, deferoxamine) on lethality: cotreatment; for ferroptosis-inducing activity of FIN56 analogs: HT-1080, 48 hrs. As for the experimental part:
1,000 cells per 36 μl were seeded in each well in 384-well plates. Lethal compounds were dissolved, and a twofold, 12-point dilution series was prepared in DMSO. Compound solutions were further diluted with media at 1:25, and 4 μl per well of the diluted solutions was added to cell cultures immediately after cells were seeded. […] When other cell-death-modulating compounds (100 nM sodium selenite, 1 μM cerivastatin, 100 μg/mL mevalonic acid) were used in cotreatments, they were supplemented to cell culture for 24 h before lethal compounds were added to cell culture, after which cells were further incubated for 24 h at 37° C. under 5% CO2. On the day of the viability measurement, we added 10 μl per well of 50% Alamar Blue diluted in media (Life Technologies) and further incubated the cells at 37° C. for 6 h. Fluorescence intensity (excitation/emission: 530/590) was measured with a Victor 3 plate reader (PerkinElmer), and the normalized viability was calculated as VL=(IL−I0)/(IV−I0), where VL, I0, IV, and IL are the normalized viability and the raw fluorescence intensities from the wells containing media, cells treated with a vehicle (negative control), and cells with the lethal compound (L), respectively. When the effect of a chemical modulator (M) on L was calculated, we instead used the equation VL|M=(IM,L−I0)/(IM,V−I0), where VL|M, IM,L and IM,V are the normalized viability, and fluorescence intensity from cells treated with […], respectively. The viability was typically measured in biological triplicate unless otherwise specified. A representative dose-response curve, the mean and standard error of normalized viability from one replicate were plotted. […]

For experiment [2], the system named is HT-1080 cells. The experiment can be described thus: Analysis of lipid ROS generation (C11-BODIPY 581/591 flow cytometry). Type of experiment: cell-based. As for the experimental part: Cells were treated with test compounds, trypsinized, pelleted, and washed once with PBS. For lipophilic or aqueous ROS detection, cells were re-suspended in Hanks' Balanced Salt Solution (HBSS; […] Cells were then pelleted, re-suspended in 500 μL HBSS, strained through a 40-μm cell strainer (BD Falcon), and analyzed using a BD Accuri C6 flow cytometer (BD Biosciences). Both dyes were measured in the FL1 channel. Experiments were done in biological triplicates.

Regarding `COC(=O)c1ccc([C@H]2c3[nH]c4ccccc4c3C[C@H](C(=O)OC)N2C(=O)CCl)cc1` [(1S, 3R)-RSL3], the “abundance of GPX4 protein” value in the experiment on GPX4 (BJeLR, cotreatment with 100 μM α-tocopherol, 10 h, FIN56 5 μM) is listed as “Neither erastin nor (1S, 3R)-RSL3 affected the abundance of GPX4 to the same extent as FIN56”. Further, the “suppression of lethality by mevalonate-pathway modulators (FPP, YM-53601, idebenone) and α-tocopherol” value in the experiment with HT-1080 cells [1] (HT-1080 cells, modulatory profiling scheme) is “potently suppressed by all the compounds”.

Take `CNc1ccc2oc(C[C@H]3O[C@@]4(CC[C@H]3C)O[C@H]([C@H](C)C(=O)c3ccc[nH]3)[C@H](C)C[C@H]4C)nc2c1C(=O)O` [A23187]: the “effect on FIN56 lethality” value in the experiment on HT-1080 cells [1] (HT-1080 cells) was “enhanced FIN56 lethality”.

In the case of `N[C@@H]1CCCN(c2c(/C=C3\SC(=O)NC3=O)cccc2-c2ccccc2)C1` [AZD-1208], the “effect of ferroptosis inhibitors (α-tocopherol, deferoxamine) on lethality” value with HT-1080 cells [1] (HT-1080 cells) is on record as “the lethality was not suppressed by αToc”.

For the compound `O=C(O)CN(CC(=O)O)c1ccccc1OCCOc1ccccc1N(CC(=O)O)CC(=O)O` [BAPTA], the “effect on FIN56 lethality” value with HT-1080 cells [1] (HT-1080 cells) is recorded as “suppressed it”.

For `CN1CCCN(C(=O)c2cccc(-c3ccc(/C=C4/C(=O)Nc5ccc(Cl)cc54)o3)c2)CC1` [CX-6258], the “effect of ferroptosis inhibitors (α-tocopherol, deferoxamine) on lethality” value with HT-1080 cells [1] (HT-1080 cells) was “the lethality was not suppressed by αToc”.

On to `O=C(O)CN(CCOCCOCCN(CC(=O)O)CC(=O)O)CC(=O)O` [EGTA, Ethyleneglycol-O,O′-bis(2-aminoethyl)-N,N,N′,N′-tetraacetic acid], for which, in the experiment with HT-1080 cells [1] (HT-1080 cells), the “effect on FIN56 lethality” value is “suppressed it”.

As for `CC(C)=CCC/C(C)=C/CC/C(C)=C/COP(=O)(O)OP(=O)(O)O.N.N.N` [FPP, farnesyl-PP], the “effect on FIN56 lethality” value in the experiment on HT-1080 cells [1] (HT-1080 cells) is reported as “suppressed the lethality of FIN56”.

Regarding `O=S(=O)(NC1CCOCC1)c1ccc2c(c1)C(=NO)c1cc(S(=O)(=O)NC3CCOCC3)ccc1-2` [SRS8-18, 9-(hydroxyimino)-N2,N7-bis(tetrahydro-2H-pyran-4-yl)-9H-fluorene-2,7-disulfonamide], the “ferroptosis-inducing activity of FIN56 analogs” value in the experiment with HT-1080 cells [1] was “complete loss of activity”.

On to `O=S(=O)(NC1CCOCC1)c1ccc2c(c1)C(=NOCCOCCOCCO)c1cc(S(=O)(=O)NC3CCOCC3)ccc1-2` [SRS11-66, 9-(2-(2-(2-hydroxyethoxy)ethoxy)ethoxyimino)-N2,N7-bis(tetrahydro-2H-pyran-4-yl)-9H-fluorene-2,7-disulfonamide], for which, in the experiment on HT-1080 cells [1], the “ferroptosis-inducing activity of FIN56 analogs” value is given as “complete loss of activity”.

Regarding `CCCCCCCCCCCCCCOc1ccc(C(=O)O)o1` [TOFA], the “effect on FIN56-induced decrease of GPX4 protein abundance” value (“effect on FIN56-induced decrease” below) with GPX4 is on record as “inhibited the loss of GPX4”. Besides, in the experiment with HT-1080 cells [2], the “effect on lipid ROS generation after FIN56 treatment” value (“effect on lipid ROS generation” below) is “suppressed lipid ROS generation after FIN56 treatment”. Further, the “effect on FIN56 lethality” value with HT-1080 cells [1] (HT-1080 cells) is reported as “potent suppressor of FIN56”.

On to `F/C(COc1ccc2c(c1)[nH]c1ccccc12)=C1/CN2CCC1CC2` [YM-53601], for which, in the experiment on HT-1080 cells [1] (HT-1080 cells), the “effect on FIN56 lethality” value is reported as “suppressed FIN56 lethality”.

`C[C@H]1O[C@@H](O[C@H]2[C@@H](O)C[C@H](O[C@H]3[C@@H](O)C[C@H](O[C@H]4CC[C@@]5(C)[C@H](CC[C@@H]6[C@@H]5C[C@@H](O)[C@]5(C)[C@@H](C7=CC(=O)OC7)CC[C@]65O)C4)O[C@@H]3C)O[C@@H]2C)C[C@H](O)[C@@H]1O` [digoxin, Digoxin]: in the experiment on HT-1080 cells [1] (HT-1080 cells), the “effect on FIN56 lethality” value was “enhanced FIN56 lethality”.

Consider `COC1=C(OC)C(=O)C(CCCCCCCCCCO)=C(C)C1=O` [idebenone], for which the “effect on FIN56-induced decrease” value in the experiment with GPX4 was “did not block the decrease in GPX4 protein abundance”. Further, in the experiment with HT-1080 cells [2], the “effect on lipid ROS generation” value is listed as “inhibited lipid ROS generation after FIN56 treatment”. Besides, in the experiment with HT-1080 cells [1], the “effect on staurosporine-induced cell death” value is given as “enhanced it”. The “effect on FIN56 lethality” value in the experiment on HT-1080 cells [1] (HT-1080 cells) is reported as “the only suppressor of FIN56-induced ferroptosis”.

`C[C@H](CCC(=O)O)C[C@H](C)C[C@H](C)C(=O)/C=C(\O)[C@H](C)C[C@H](C)C/C=C/[C@@H](C)[C@@H](O)[C@@H](C)[C@@H](O)C[C@@H]1CC[C@@](C)([C@H]2CC[C@@](C)([C@@H](C)O)O2)O1` [ionomycin]: the “effect on FIN56 lethality” value in the experiment on HT-1080 cells [1] (HT-1080 cells) was “enhanced FIN56 lethality”.

In the case of `O=[Se]([O-])[O-].[Na+].[Na+]` [selenite, sodium selenite], the “effect on FIN56 lethality” value in the experiment on HT-1080 cells [1] (HT-1080 cells) is given as “suppressed FIN56 lethality”.

For the compound `C=C(CC[C@]12O[C@H](C(=O)O)[C@@](O)(C(=O)O)[C@](C(=O)O)(O1)[C@H](OC(=O)/C=C/[C@@H](C)C[C@@H](C)CC)[C@H]2O)[C@@H](OC(C)=O)[C@H](C)Cc1ccccc1` [zaragozic acid A], the “effect on FIN56 lethality” value in the experiment on HT-1080 cells [1] (HT-1080 cells) is “suppressed FIN56 lethality”.

Consider `Cc1c(C)c2c(c(C)c1O)CC[C@@](C)(CCC[C@H](C)CCC[C@H](C)CCCC(C)C)O2` [α-tocopherol], for which the “effect on FIN56-induced decrease” value in the experiment with GPX4 was “not inhibited”. Also, in the experiment with HT-1080 cells [2], the “effect on lipid ROS generation” value is “inhibited lipid ROS generation after FIN56 treatment”. The “effect on staurosporine-induced cell death” value in the experiment with HT-1080 cells [1] is “suppressed staurosporine-induced cell death”.

These data come from patent US10947188B2, “Small molecule ferroptosis inducers” (THE TRUSTEES OF COLUMBIA UNIVERSITY IN THE CITY OF NEW YORK, priority 2016, dated 2021).
